Patent US20150258101A1 (Proximagen Limited, priority 2014, published 2015)

Legend:
[1] = biological target: T1, purified recombinantly expressed human SSAO (Homo sapiens, UniProt Q16853); assay: SSAO enzyme inhibition assay (benzylamine substrate; hydrogen peroxide/HRP-coupled or 14C aldehyde detection); type: biochemical; conditions: SSAO inhibitory activity, RT
T1 construct: made in house
T1 sequence (Q16853 1-763): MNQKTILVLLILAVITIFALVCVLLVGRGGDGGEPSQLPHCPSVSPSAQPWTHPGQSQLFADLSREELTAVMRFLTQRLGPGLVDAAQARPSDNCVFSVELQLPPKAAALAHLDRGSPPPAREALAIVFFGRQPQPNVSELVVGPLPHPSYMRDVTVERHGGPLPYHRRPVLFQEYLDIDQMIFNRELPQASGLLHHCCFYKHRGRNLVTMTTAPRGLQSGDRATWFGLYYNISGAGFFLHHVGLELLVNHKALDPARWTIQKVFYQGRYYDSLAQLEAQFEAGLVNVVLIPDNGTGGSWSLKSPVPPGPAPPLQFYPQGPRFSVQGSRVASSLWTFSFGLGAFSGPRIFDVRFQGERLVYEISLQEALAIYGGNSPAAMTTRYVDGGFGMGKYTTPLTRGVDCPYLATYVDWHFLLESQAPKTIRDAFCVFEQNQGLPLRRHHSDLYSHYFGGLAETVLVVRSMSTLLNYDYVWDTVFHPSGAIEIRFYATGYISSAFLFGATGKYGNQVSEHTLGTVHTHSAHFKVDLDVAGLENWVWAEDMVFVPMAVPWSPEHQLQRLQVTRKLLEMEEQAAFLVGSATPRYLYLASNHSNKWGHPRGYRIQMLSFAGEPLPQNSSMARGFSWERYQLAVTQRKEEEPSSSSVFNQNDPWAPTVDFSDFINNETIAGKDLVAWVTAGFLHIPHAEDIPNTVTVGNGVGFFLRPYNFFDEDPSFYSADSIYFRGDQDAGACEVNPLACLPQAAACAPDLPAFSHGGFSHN
Method in brief: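 IC50 values came from a four-parameter logistic fit of % signal decrease versus DMSO control, with no-enzyme background subtracted. Two read-outs were used with human recombinant SSAO after ~15 min compound pre-incubation at RT. In the H2O2/HRP-Amplex read-out, enzyme was 1 ug/ml and benzylamine 100 uM (pH 7.4 phosphate), with resorufin fluorescence followed 1-2 h. In the 14C-benzaldehyde read-out (PBS), enzyme was 10 ug/ml and benzylamine 40 uM, run 1 h then acid-stopped.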

[2] = biological target: T2, human ether a go-go related gene (hERG) K+ channel (Homo sapiens, UniProt Q12809); assay: hERG assay, IonWorks patch clamp electrophysiology; type: cell-based; conditions: Chinese Hamster Lung cell line stably expressing hERG; max assay concentration 11 uM
T2 construct: a Chinese Hamster Lung cell line stably expressing the full length hERG channel; expressed in transfected cells; host or cells: Chinese Hamster Lung cell line
T2 sequence (Q12809 whole entry): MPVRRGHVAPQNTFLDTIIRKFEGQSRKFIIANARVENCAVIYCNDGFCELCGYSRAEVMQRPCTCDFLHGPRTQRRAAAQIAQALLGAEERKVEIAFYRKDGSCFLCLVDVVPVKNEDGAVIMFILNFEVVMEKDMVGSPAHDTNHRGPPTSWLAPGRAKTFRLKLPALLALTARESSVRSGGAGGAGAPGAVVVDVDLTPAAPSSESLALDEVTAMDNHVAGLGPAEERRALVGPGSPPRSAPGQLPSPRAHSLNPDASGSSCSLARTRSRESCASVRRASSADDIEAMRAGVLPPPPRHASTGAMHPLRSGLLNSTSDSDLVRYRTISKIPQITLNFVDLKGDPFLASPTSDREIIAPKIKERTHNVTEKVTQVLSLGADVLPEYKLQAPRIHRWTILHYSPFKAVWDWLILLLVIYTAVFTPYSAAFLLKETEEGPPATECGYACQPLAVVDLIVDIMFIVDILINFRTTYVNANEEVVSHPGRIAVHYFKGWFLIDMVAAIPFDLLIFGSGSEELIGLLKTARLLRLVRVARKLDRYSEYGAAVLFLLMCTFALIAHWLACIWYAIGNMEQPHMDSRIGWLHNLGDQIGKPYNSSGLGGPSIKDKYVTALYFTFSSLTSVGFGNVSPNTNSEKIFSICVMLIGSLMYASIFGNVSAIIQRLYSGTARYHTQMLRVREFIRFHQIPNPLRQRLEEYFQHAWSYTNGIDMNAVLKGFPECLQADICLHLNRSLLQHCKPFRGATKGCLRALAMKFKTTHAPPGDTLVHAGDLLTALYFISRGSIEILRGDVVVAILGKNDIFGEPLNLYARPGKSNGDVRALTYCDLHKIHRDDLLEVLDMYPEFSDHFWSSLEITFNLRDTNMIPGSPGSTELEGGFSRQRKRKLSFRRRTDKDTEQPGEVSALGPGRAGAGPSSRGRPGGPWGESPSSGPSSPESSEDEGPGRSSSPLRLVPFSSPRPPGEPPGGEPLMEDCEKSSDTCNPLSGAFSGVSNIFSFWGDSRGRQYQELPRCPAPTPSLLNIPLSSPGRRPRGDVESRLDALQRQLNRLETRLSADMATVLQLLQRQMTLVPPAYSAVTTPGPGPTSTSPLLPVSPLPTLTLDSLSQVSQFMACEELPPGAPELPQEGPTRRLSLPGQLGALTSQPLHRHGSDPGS
Method: Compounds of the invention were tested for inhibition of the human ether a go-go related gene (hERG) K^+ channel using IonWorks patch clamp electrophysiology. 8 Point concentration-response curves were generated on two occasions using 3-fold serial dilutions from the maximum assay concentration (11 uM). Electrophysiological recordings were made from a Chinese Hamster Lung cell line stably expressing the full length hERG channel. Single cell ion currents were measured in the perforated patch clamp configuration (100 ug/mL amphoterocin) at room temperature using an IonWorks Quattro instrument. The internal solution contained 140 mM KCl, 1 mM MgCl2, 1 mM EGTA and 20 mM HEPES and was buffered to pH 7.3. The external solution contained 138 mM NaCl, 2.7 mM KCl, 0.9 mM CaCl2, 0.5 mM MgCl2, 8 mM Na2HPO4 and 1.5 mM KH2PO4, and was buffered to pH 7.3. […] This sequence was repeated 5 times at a frequency of 0.25 Hz. Currents were measured from the tail step at the 5th pulse, and referenced to the holding current. Compounds were incubated for 6-7 min prior to a second measurement of the hERG signal using an identical pulse train. […] A control compound (quinidine) was used (see Table 20 below).

Row | SMILES | IC50 [1] | IC50 [2]
1 | Fc1ccc(-n2c(-c3cnc(N4CCOCC4)c(F)c3)nc3ccncc32)cc1 [Example 98, 4-{3-Fluoro-5-[3-(4-fluorophenyl)-3H-imidazo[4,5-c]pyridin-2-yl]pyridin-2-yl]morpholine] | 50 to 200 nM | > 10000 nM
2 | Clc1ccc(-n2c(-c3cnc(N4CCOCC4)nc3)cc3ccncc32)cc1 [Example 127, 4-{5-[1-(4-Chlorophenyl)-1H-pyrrolo[2,3-c]pyridin-2-yl]pyrimidin-2-yl}morpholine] | < 50 nM | 100 to 1000 nM
3 | Clc1ccc(-n2c(-c3cnc(NC4CCOCC4)nc3)nc3ccncc32)cc1 [Example 11, 5-[3-(4-Chlorophenyl)-3H-imidazo[4,5-c]pyridin-2-yl]-N-(oxan-4-yl)pyrimidin-2-amine; bis(trifluoroacetic acid)] | < 50 nM | > 10000 nM
4 | Clc1ccc(-n2c(-c3ccncc3Cl)cc3ccncc32)cc1 [Example 153, 3-Chloro-4-[1-(4-chlorophenyl)-1H-pyrrolo[2,3-c]pyridin-2-yl]pyridine] | 50 to 200 nM | 1000 to 10000 nM
5 | NC(=O)NC1CCN(c2ccc(-c3nc4ccncc4n3-c3ccc(Cl)cc3)cn2)CC1 [Example 91, (1-{5-[3-(4-Chlorophenyl)-3H-imidazo[4,5-c]pyridin-2-yl]pyridin-2-yl}piperidin-4-yl)urea; bis(trifluoroacetic acid)] | 200 to 1200 nM | > 10000 nM
6 | O=c1cc(-c2cc3ccncc3n2-c2ccc(Cl)cc2)ccn1C1CC1 [Example 138, 4-[1-(4-Chlorophenyl)-1H-pyrrolo[2,3-c]pyridin-2-yl]-1-cyclopropyl-1,2-dihydropyridin-2-one] | < 50 nM | 1000 to 10000 nM
7 | CC1(C)CN(c2ncc(-c3nc4ccncc4n3-c3ccc(F)cc3)cn2)CCO1 [Example 24, 4-{5-[3-(4-Fluorophenyl)-3H-imidazo[4,5-c]pyridin-2-yl]pyrimidin-2-yl}-2,2-dimethylmorpholine] | < 50 nM | > 10000 nM
8 | Clc1ccc(-n2c(-c3ccc(N4CCOCC4)nc3)nc3ccncc32)cc1 [Example 47, 4-{5-[3-(4-Chlorophenyl)-3H-imidazo[4,5-c]pyridin-2-yl]pyridin-2-yl}morpholine] | < 50 nM | 1000 to 10000 nM
9 | NC(=O)N1CCN(c2ccc(-c3nc4ccncc4n3-c3ccc(F)cc3)cn2)CC1 [Example 92, 4-{5-[3-(4-Fluorophenyl)-3H-imidazo[4,5-c]pyridin-2-yl]pyridin-2-yl}piperazine-1-carboxamide] | < 50 nM | > 10000 nM
10 | Cc1ccc(-n2c(-c3ccc(N4CCOCC4)nc3)nc3ccncc32)c(F)c1 [Example 67, 4-{5-[3-(2-Fluoro-4-methylphenyl)-3H-imidazo[4,5-c]pyridin-2-yl]pyridin-2-yl}morpholine] | < 50 nM | 1000 to 10000 nM
11 | Clc1ccc(-n2c(-c3ccncc3)nc3ccncc32)cc1 [Example 2, 4-[3-(4-Chlorophenyl)-3H-imidazo[4,5-c]pyridin-2-yl] pyridine] | 200 to 1200 nM | > 10000 nM
12 | Clc1ccc(-n2c(-c3cnc(N4CCOCC4)nc3)nc3ccncc32)cc1 [Example 51, 4-{5-[3-(4-Chlorophenyl)-3H-imidazo[4,5-c]pyridin-2-yl]pyrimidin-2-yl}morpholine] | < 50 nM | 1000 to 10000 nM
13 | Cc1ccc(-n2c(-c3ccc(N4CCOCC4)nc3)nc3ccncc32)nc1 [Example 82, 4-{5-[3-(5-Methylpyridin-2-yl)-3H-imidazo[4,5-c]pyridin-2-yl]pyridin-2-yl}morpholine] | < 50 nM | > 10000 nM
14 | Cc1ccc(-n2c(-c3ccc(N4CCOCC4)nc3)nc3ccncc32)cc1 [Example 63, 4-{5-[3-(4-Methylphenyl)-3H-imidazo[4,5-c]pyridin-2-yl]pyridin-2-yl}morpholine] | 200 to 1200 nM | > 10000 nM
15 | Cc1ccc(-n2c(-c3ccc(N4CCOCC4)nc3)nc3ccncc32)cn1 [Example 64, 4-{5-[3-(6-Methylpyridin-3-yl)-3H-imidazo[4,5-c]pyridin-2-yl]pyridin-2-yl}morpholine] | 200 to 1200 nM | > 10000 nM
16 | Fc1ccc(-n2c(-c3cnc(N4CCOCC4)nc3)nc3ccncc32)cc1 [Example 52, 4-{5-[3-(4-Fluorophenyl)-3H-imidazo[4,5-c]pyridin-2-yl]pyrimidin-2-yl}morpholine] | < 50 nM | > 10000 nM
17 | Clc1ccc(-n2c(-c3ccc(CN4CCOCC4)nc3)cc3ccncc32)cc1 [Example 140, 4-({5-[1-(4-Chlorophenyl)-1H-pyrrolo[2,3-c]pyridin-2-yl]pyridin-2-yl}methyl)morpholine] | < 50 nM | 1000 to 10000 nM
18 | Clc1ccc(-n2c(-c3cnc(N4CCOCC4)nc3)nc3ccncc32)nc1 [Example 75, 4-{5-[3-(5-Chloropyridin-2-yl)-3H-imidazo[4,5-c]pyridin-2-yl]pyrimidin-2-yl}morpholine; tris(trifluoroacetic acid)] | < 50 nM | > 10000 nM
19 | Clc1ccc(-n2c(-c3cccnc3)cc3ccncc32)cc1 [Example 122, 3-[1-(4-Chlorophenyl)-1H-pyrrolo[2,3-c]pyridin-2-yl]pyridine] | 50 to 200 nM | 1000 to 10000 nM
20 | c1ccc(-n2c(-c3cnc(N4CCOCC4)nc3)nc3ccncc32)cc1 [Example 95, 4-(5-{3-Phenyl-3H-imidazo[4,5-c]pyridin-2-yl}pyrimidin-2-yl)morpholine] | 50 to 200 nM | > 10000 nM
21 | Clc1ccc(-n2c(-c3ccc(N4CCOCC4)nn3)nc3ccncc32)cc1 [Example 4, 4-{6-[3-(4-Chlorophenyl)-3H-imidazo[4,5-c]pyridin-2-yl]pyridazin-3-yl}morpholine] | < 50 nM | 1000 to 10000 nM
